Results as given in ChEMBL document CHEMBL2331129, “Development and characterization of monomeric N-end rule inhibitors through in vitro model substrates” (J Med Chem, 2013).
Activity calls are given as the source filed them. The rule behind the calls is not given here.

Key:
Oryctolagus cuniculus [1] = species: Oryctolagus cuniculus; settings: at 2 mM
Description: Inhibition of UBR protein in rabbit reticulocyte lysates assessed as inhibition of Tyr-nsP4 substrate degradation at 2 mM

Oryctolagus cuniculus [2] = species: Oryctolagus cuniculus; settings: at 2 mM; remark: listed apart in the source
Description: Inhibition of UBR protein in rabbit reticulocyte lysates assessed as inhibition of Tyr-nsP4 substrate degradation at 2 mM by immunoblotting analysis in presence of bestatin

Oryctolagus cuniculus [3] = species: Oryctolagus cuniculus; experiment: Inhibition of UBR protein in rabbit reticulocyte lysates assessed as inhibition of Arg-nsP4 substrate degradation at 6 mM by SDS-PAGE in presence of bestatin
Oryctolagus cuniculus [4] = species: Oryctolagus cuniculus; experiment: Inhibition of UBR protein in rabbit reticulocyte lysates assessed as inhibition of RGS4 substrate degradation at 2 mM after 30 to 60 mins in presence of bestatin
[5] = Inhibition of UBR protein in rabbit reticulocyte lysates assessed as inhibition of Arg-nsP4 substrate degradation by in vitro synthesis/degradation assay; parameters: species or system Oryctolagus cuniculus
Oryctolagus cuniculus [6] = species: Oryctolagus cuniculus; experiment: Inhibition of UBR protein in rabbit reticulocyte lysates assessed as inhibition of Arg-nsP4 substrate degradation at 2 mM after 30 mins by Western blot analysis
Oryctolagus cuniculus [7] = species: Oryctolagus cuniculus; experiment: Inhibition of UBR protein in rabbit reticulocyte lysates assessed as inhibition of Arg-nsP4 substrate degradation at 2 mM by SDS-PAGE in presence of bestatin
[8] = Inhibition of UBR protein in rabbit reticulocyte lysates assessed as inhibition of Tyr-nsP4 substrate degradation by in vitro synthesis/degradation assay; parameters: species or system Oryctolagus cuniculus
Oryctolagus cuniculus [9] = species: Oryctolagus cuniculus; experiment: Inhibition of UBR protein in rabbit reticulocyte lysates assessed as inhibition of Arg-nsP4 substrate degradation at 1 mM after 30 mins by Western blot analysis
Oryctolagus cuniculus [10] = species: Oryctolagus cuniculus
Description: Inhibition of UBR protein in rabbit reticulocyte lysates assessed as inhibition of Tyr-nsP4 substrate degradation measuring substrate half life at 2 mM

Structure (SMILES) | inhibition (Oryctolagus cuniculus [1]) | inhibition (Oryctolagus cuniculus [2]) | also measured
N[C@@H](Cc1ccccc1)C(=O)NCCCCC(=O)O | Active | Active | 
N[C@@H](Cc1ccccc1)C(=O)NCCC(=O)O | Active | Active | 
N[C@@H](Cc1ccccc1)C(=O)NCCCP(=O)(O)O | Active | Active | 
CCCCCNC(=O)[C@@H](N)Cc1ccccc1 | Active | Active | 
CC(N)Cc1ccccc1 (configuration not stated) |  | Active | 
CC(=O)N[C@@H](Cc1ccccc1)C(N)=O | inactive | inactive | 
C[C@H](NC(=O)[C@H](N)CCCNC(=N)N)C(=O)O |  |  | inhibition (Oryctolagus cuniculus [3]): inactive; inhibition (Oryctolagus cuniculus [4]): inactive
CC(=O)N[C@@H](Cc1ccccc1)C(=O)O | inactive | inactive | 
C[C@H](NC(=O)[C@@H](N)CCCN=C(N)N)C(=O)O |  |  | IC50 [5]: 1200 µM; inhibition (Oryctolagus cuniculus [6]): Active; inhibition (Oryctolagus cuniculus [4]): Active; inhibition (Oryctolagus cuniculus [7]): Active
C[C@H](NC[C@@H](N)Cc1ccccc1)C(=O)O |  | inactive | 
NC(N)=NCCC[C@H](N)C(=O)N[C@@H](Cc1ccccc1)C(=O)O |  |  | inhibition (Oryctolagus cuniculus [4]): Active
CC(=O)N[C@@H](Cc1ccccc1)C(=O)N[C@@H](C)C(=O)O |  | inactive | 
N=C(N)NCCC[C@@H](N)C(=O)N[C@@H](Cc1ccccc1)C(=O)O |  |  | inhibition (Oryctolagus cuniculus [4]): inactive
NC(=O)[C@@H](N)Cc1ccccc1 | Active | inactive | 
COC(=O)CCCCNC(=O)[C@@H](N)Cc1ccccc1 | Active | Active | 
CC(N)Cc1ccc(Cl)cc1 (configuration not stated) |  | Active | IC50 [8]: 1170 µM; IC50 [5]: 935 µM; inhibition (Oryctolagus cuniculus [9]): Active; T1/2 (Oryctolagus cuniculus [10]): 1.05 h
